# Measurements taken from the Biogen ADME set (Fang et al. 2023).
# Settings: for aqueous solubility: pH 6.8
structure (smiles),measurement,value
COCCc1n[nH]c(-c2ccc(N3CCN(C)CC3)cc2)n1,MDR1-MDCK efflux ratio,7.53
same,"intrinsic clearance, human liver microsomes",≤ 4.74 mL/min/kg
same,"intrinsic clearance, rat liver microsomes",50 mL/min/kg
COCCOc1cnc2ccn([C@H](C)c3nnc4c(F)cc(-c5cnn(C)c5)cn34)c(=O)c2c1,MDR1-MDCK efflux ratio,126
same,"intrinsic clearance, human liver microsomes",6.14 mL/min/kg
same,"intrinsic clearance, rat liver microsomes",25.1 mL/min/kg
Cc1cccc(-n2cnnc2CCCN2CCOCC2)c1,MDR1-MDCK efflux ratio,30.5
same,"intrinsic clearance, human liver microsomes",≤ 4.74 mL/min/kg
same,"intrinsic clearance, rat liver microsomes",98.3 mL/min/kg
same,aqueous solubility,35 µg/mL
Cc1nccc(NC(=O)CCc2ccncc2)c1Cl,MDR1-MDCK efflux ratio,0.826
same,"intrinsic clearance, human liver microsomes",≤ 4.74 mL/min/kg
same,"intrinsic clearance, rat liver microsomes",73.1 mL/min/kg
Nc1cnn(CC(=O)N2CCCCC2)c1,"intrinsic clearance, human liver microsomes",≤ 4.74 mL/min/kg
same,"intrinsic clearance, rat liver microsomes",≤ 10.7 mL/min/kg
same,aqueous solubility,36.4 µg/mL
Cc1ccnc(NC(=O)CN2CCCC2=O)c1,MDR1-MDCK efflux ratio,2.12
same,"intrinsic clearance, human liver microsomes",≤ 4.74 mL/min/kg
same,"intrinsic clearance, rat liver microsomes",≤ 10.7 mL/min/kg
same,aqueous solubility,55.1 µg/mL
Cc1ccnc(N2CC(O)(c3ccc(F)cc3)C2)c1C#N,MDR1-MDCK efflux ratio,0.696
same,"intrinsic clearance, human liver microsomes",99.1 mL/min/kg
same,"intrinsic clearance, rat liver microsomes",3630 mL/min/kg
Cc1cccc(NC(=O)CN(C)Cc2nc3ccccc3c(=O)[nH]2)c1C,MDR1-MDCK efflux ratio,17.6
same,"intrinsic clearance, human liver microsomes",54 mL/min/kg
same,"intrinsic clearance, rat liver microsomes",571 mL/min/kg
Fc1ccc(-n2nc(C3CCOCC3)nc2-c2cn[nH]c2)c(F)c1,MDR1-MDCK efflux ratio,19.6
same,"intrinsic clearance, human liver microsomes",≤ 4.74 mL/min/kg
same,"intrinsic clearance, rat liver microsomes",62.7 mL/min/kg
same,aqueous solubility,25.9 µg/mL
Cc1ccc(-n2nc(C(C)(C)C)cc2NC(=O)NCc2cc(F)ccc2Oc2ccc3c(cnn3CCO)c2)cc1,MDR1-MDCK efflux ratio,16.2
same,aqueous solubility,0.2 µg/mL
COc1ccc(CNc2ncc(-c3ccc4c(c3)OCO4)n2C)c(OC)c1,MDR1-MDCK efflux ratio,1.48
same,"intrinsic clearance, human liver microsomes",202 mL/min/kg
same,"intrinsic clearance, rat liver microsomes",1590 mL/min/kg
same,aqueous solubility,42.5 µg/mL
FC(F)(F)c1nccc(NCCSc2nc3ccccc3o2)n1,MDR1-MDCK efflux ratio,0.317
same,"intrinsic clearance, human liver microsomes",256 mL/min/kg
same,"intrinsic clearance, rat liver microsomes",747 mL/min/kg
same,aqueous solubility,44.9 µg/mL
Cc1nccc(-c2cccc(NCC(=O)N(C)c3ccccc3)c2)n1,MDR1-MDCK efflux ratio,0.964
same,"intrinsic clearance, human liver microsomes",22 mL/min/kg
same,"intrinsic clearance, rat liver microsomes",401 mL/min/kg
same,aqueous solubility,38.2 µg/mL
CSc1nnc(CCCNc2cc(C)ccn2)n1C1CCCC1,MDR1-MDCK efflux ratio,18.2
same,"intrinsic clearance, human liver microsomes",138 mL/min/kg
same,"intrinsic clearance, rat liver microsomes",3220 mL/min/kg
CN1CCc2nc(NC(=O)c3cncn3-c3ccccc3)sc2C1,MDR1-MDCK efflux ratio,20.3
same,"intrinsic clearance, human liver microsomes",5.11 mL/min/kg
same,"intrinsic clearance, rat liver microsomes",63.6 mL/min/kg
same,aqueous solubility,43.4 µg/mL
COc1ccc2c(c1)C(=O)N(c1ccc(C)cc1)C(=O)C2,"intrinsic clearance, human liver microsomes",29.8 mL/min/kg
same,"intrinsic clearance, rat liver microsomes",368 mL/min/kg
O=C(Cc1cccc2ccccc12)NCc1nnc2n1-c1ccccc1CC2,MDR1-MDCK efflux ratio,45
same,"intrinsic clearance, human liver microsomes",239 mL/min/kg
same,"intrinsic clearance, rat liver microsomes",1730 mL/min/kg
same,aqueous solubility,46.7 µg/mL
NC(=O)Cc1nc(-c2ccc(Cl)cc2Cl)cs1,aqueous solubility,41 µg/mL
COc1cc(/C=C/c2nccc(C#N)n2)ccc1F,aqueous solubility,3.27 µg/mL
Cc1c(O)cccc1OCCN1CCOCC1,"intrinsic clearance, human liver microsomes",≤ 4.74 mL/min/kg
same,"intrinsic clearance, rat liver microsomes",53.7 mL/min/kg
CCc1c(O)cc(O)c(C(=O)c2ccc(OCCN3CCOCC3)c(OC)c2)c1CC(=O)N(CCOC)CCOC,MDR1-MDCK efflux ratio,7.53
same,"intrinsic clearance, human liver microsomes",28.1 mL/min/kg
same,"intrinsic clearance, rat liver microsomes",209 mL/min/kg
O=c1[nH]c2ccccc2n1C1CCN(Cc2nc(-c3cccs3)no2)CC1,"intrinsic clearance, human liver microsomes",11.4 mL/min/kg
same,"intrinsic clearance, rat liver microsomes",234 mL/min/kg
Cc1nc2cc(-c3nccn3C)nn2c(NCCCN(C)C)c1C,MDR1-MDCK efflux ratio,67.6
same,"intrinsic clearance, human liver microsomes",≤ 4.74 mL/min/kg
same,"intrinsic clearance, rat liver microsomes",601 mL/min/kg
CN(CC1(O)CCCC1)c1ncccn1,MDR1-MDCK efflux ratio,1.27
same,"intrinsic clearance, human liver microsomes",≤ 4.74 mL/min/kg
same,"intrinsic clearance, rat liver microsomes",132 mL/min/kg
same,aqueous solubility,32.6 µg/mL
CC(C)(C)c1cc(C(=O)CSc2nnnn2-c2ccccc2)cc(C(C)(C)C)c1O,"intrinsic clearance, human liver microsomes",26.1 mL/min/kg
same,"intrinsic clearance, rat liver microsomes",55.8 mL/min/kg
C[C@H](Cc1cc2c(c(C(N)=O)c1)N(CCCO)CC2)NCCOc1ccccc1OCC(F)(F)F,MDR1-MDCK efflux ratio,27.4
same,"intrinsic clearance, human liver microsomes",59 mL/min/kg
same,"intrinsic clearance, rat liver microsomes",313 mL/min/kg
CCC(=O)N(C)CC(=O)Nc1cccc(F)c1,MDR1-MDCK efflux ratio,0.705
same,"intrinsic clearance, human liver microsomes",≤ 4.74 mL/min/kg
same,"intrinsic clearance, rat liver microsomes",12.2 mL/min/kg
same,aqueous solubility,44.8 µg/mL
Nc1nc2ccccc2nc1N1CCCC1,MDR1-MDCK efflux ratio,0.533
same,"intrinsic clearance, human liver microsomes",232 mL/min/kg
same,"intrinsic clearance, rat liver microsomes",337 mL/min/kg
same,aqueous solubility,29.9 µg/mL
Cc1cc(C)c(NC(=O)Cn2nnn(-c3cccs3)c2=O)c(C)c1,MDR1-MDCK efflux ratio,0.738
same,aqueous solubility,0.77 µg/mL
CCN1CCc2c(sc(NC(=O)CS(=O)(=O)c3ccccc3)c2-c2nc3ccccc3s2)C1,"intrinsic clearance, human liver microsomes",71.6 mL/min/kg
same,"intrinsic clearance, rat liver microsomes",435 mL/min/kg
O=C(O)c1cnn(-c2ccncc2)c1C(F)F,"intrinsic clearance, human liver microsomes",≤ 4.74 mL/min/kg
same,"intrinsic clearance, rat liver microsomes",≤ 10.7 mL/min/kg
same,aqueous solubility,31.9 µg/mL
c1ccc(-c2noc(NC3CC3)n2)cc1,MDR1-MDCK efflux ratio,0.809
same,"intrinsic clearance, human liver microsomes",83.2 mL/min/kg
same,"intrinsic clearance, rat liver microsomes",178 mL/min/kg
same,aqueous solubility,28.3 µg/mL
CN(Cc1nc2c(s1)CCCC2)c1cnccn1,MDR1-MDCK efflux ratio,0.576
same,"intrinsic clearance, human liver microsomes",131 mL/min/kg
same,"intrinsic clearance, rat liver microsomes",1280 mL/min/kg
CCN1CCN(Cc2ccc(Nc3ncc(F)c(-c4cc(F)c5nc(C)n(C(C)C)c5c4)n3)nc2)CC1.CS(=O)(=O)O,MDR1-MDCK efflux ratio,61.4
same,"intrinsic clearance, human liver microsomes",129 mL/min/kg
same,"intrinsic clearance, rat liver microsomes",107 mL/min/kg
same,aqueous solubility,48.2 µg/mL
CC(C)(C)C(=O)N1CCC(CN2CCCC[C@@H]2CO)CC1,MDR1-MDCK efflux ratio,14.3
same,"intrinsic clearance, human liver microsomes",≤ 4.74 mL/min/kg
same,"intrinsic clearance, rat liver microsomes",29.4 mL/min/kg
same,aqueous solubility,50.1 µg/mL
CCN(C(=O)c1cccc(-n2cccn2)c1)c1ccc(C#N)c(Cl)c1,"intrinsic clearance, human liver microsomes",79 mL/min/kg
same,"intrinsic clearance, rat liver microsomes",2060 mL/min/kg
O=C(NC[C@]1(O)CCN(Cc2ccsc2)C[C@H]1O)c1c[nH]cn1,MDR1-MDCK efflux ratio,0.366
same,"intrinsic clearance, human liver microsomes",≤ 4.74 mL/min/kg
same,"intrinsic clearance, rat liver microsomes",≤ 10.7 mL/min/kg
O=C(Nc1ccc2[nH]ncc2c1)[C@H]1CCCNC1,MDR1-MDCK efflux ratio,0.38
same,"intrinsic clearance, human liver microsomes",14.5 mL/min/kg
same,"intrinsic clearance, rat liver microsomes",343 mL/min/kg
Cc1nnc(NCC(=O)N2CCc3sccc3C2)c(C#N)c1C,MDR1-MDCK efflux ratio,1.31
same,"intrinsic clearance, human liver microsomes",17.3 mL/min/kg
same,"intrinsic clearance, rat liver microsomes",267 mL/min/kg
same,aqueous solubility,35.8 µg/mL
O=C1Oc2nc3cc4c(cc3cc2CN1CCN1CCOCC1)OCO4,MDR1-MDCK efflux ratio,2.42
same,"intrinsic clearance, human liver microsomes",5.18 mL/min/kg
same,"intrinsic clearance, rat liver microsomes",28.8 mL/min/kg
same,aqueous solubility,9.6 µg/mL
O=C(O)c1nc(-c2ccccc2)oc1-c1ccccc1,MDR1-MDCK efflux ratio,0.802
same,"intrinsic clearance, human liver microsomes",6.99 mL/min/kg
same,"intrinsic clearance, rat liver microsomes",≤ 10.7 mL/min/kg
same,aqueous solubility,40.8 µg/mL
Cc1noc(C)c1CCC(=O)Nc1cccnc1,MDR1-MDCK efflux ratio,7.24
same,"intrinsic clearance, human liver microsomes",≤ 4.74 mL/min/kg
same,"intrinsic clearance, rat liver microsomes",32.1 mL/min/kg
same,aqueous solubility,55.7 µg/mL
OCC1CCCCN1Cc1ccc(-c2ccccc2)cc1 (stereo unspecified),MDR1-MDCK efflux ratio,0.708
same,"fraction unbound, human plasma",0.233
same,"fraction unbound, rat plasma",0.248
same,"intrinsic clearance, human liver microsomes",20.6 mL/min/kg
same,"intrinsic clearance, rat liver microsomes",2220 mL/min/kg
same,aqueous solubility,41.7 µg/mL
CC1CC(N)CCN1C(=O)c1cc(N2CCNC2=O)c(F)cc1F (stereo unspecified),MDR1-MDCK efflux ratio,1.32
same,"fraction unbound, human plasma",0.682
same,"intrinsic clearance, human liver microsomes",≤ 4.74 mL/min/kg
CN(C)C(=O)COc1ccc(N)c(F)c1,MDR1-MDCK efflux ratio,0.766
same,"intrinsic clearance, human liver microsomes",≤ 4.74 mL/min/kg
same,"intrinsic clearance, rat liver microsomes",≤ 10.7 mL/min/kg
same,aqueous solubility,43.8 µg/mL
Cc1cc(C)c(CC(=O)N2CC(CO)C2)c(C)c1,MDR1-MDCK efflux ratio,1.72
same,"intrinsic clearance, human liver microsomes",4.99 mL/min/kg
same,"intrinsic clearance, rat liver microsomes",15.6 mL/min/kg
same,aqueous solubility,46.3 µg/mL
CN(C)C(=O)c1cncc(N(C)CCN(C)C2CCCC2)n1,MDR1-MDCK efflux ratio,20.2
same,"intrinsic clearance, human liver microsomes",6.5 mL/min/kg
same,"intrinsic clearance, rat liver microsomes",32.3 mL/min/kg
CC(C)CC(=O)NCC(=O)N1CCCC1,MDR1-MDCK efflux ratio,1.2
same,"intrinsic clearance, human liver microsomes",≤ 4.74 mL/min/kg
same,"intrinsic clearance, rat liver microsomes",≤ 10.7 mL/min/kg
same,aqueous solubility,61.5 µg/mL
Cc1cccc(NC(=O)c2cccc3ncccc23)c1,MDR1-MDCK efflux ratio,0.471
same,"intrinsic clearance, human liver microsomes",22.2 mL/min/kg
same,"intrinsic clearance, rat liver microsomes",155 mL/min/kg
same,aqueous solubility,4.85 µg/mL
CC(=O)Nc1ccc2nc(N3CCOCC3)sc2c1,MDR1-MDCK efflux ratio,0.807
same,"intrinsic clearance, human liver microsomes",≤ 4.74 mL/min/kg
same,"intrinsic clearance, rat liver microsomes",23.1 mL/min/kg
same,aqueous solubility,44 µg/mL
c1ccc(-c2noc(Cn3ccnc3)n2)nc1,MDR1-MDCK efflux ratio,1.44
same,"intrinsic clearance, human liver microsomes",≤ 4.74 mL/min/kg
same,"intrinsic clearance, rat liver microsomes",≤ 10.7 mL/min/kg
O=C(COC(=O)c1cc(O)nc2ccccc12)c1ccc(Oc2c(Cl)cccc2[N+](=O)[O-])cc1,"intrinsic clearance, human liver microsomes",986 mL/min/kg
same,"intrinsic clearance, rat liver microsomes",184 mL/min/kg
O=C(CN1C(=O)CCC1=O)Nc1ccc(F)c(F)c1F,aqueous solubility,50 µg/mL
COc1cc2c(cc1NC(C)=O)oc1ccccc12,MDR1-MDCK efflux ratio,0.379
same,"intrinsic clearance, human liver microsomes",117 mL/min/kg
same,"intrinsic clearance, rat liver microsomes",63.7 mL/min/kg
same,aqueous solubility,34.4 µg/mL
Cn1cnnc1-c1cccc(NS(=O)(=O)c2cc3c(cc2Cl)OCCO3)c1,MDR1-MDCK efflux ratio,16.9
same,"intrinsic clearance, human liver microsomes",16 mL/min/kg
same,"intrinsic clearance, rat liver microsomes",308 mL/min/kg
CCN(CC)C(=O)N1CCCN(C(=O)N(CC)CC)CC1,MDR1-MDCK efflux ratio,4.51
same,"intrinsic clearance, human liver microsomes",68.5 mL/min/kg
same,"intrinsic clearance, rat liver microsomes",698 mL/min/kg
same,aqueous solubility,48.6 µg/mL
CC(C)n1cc(-c2ccc3c(c2)N(C)CC3)c2c(NS(=O)(=O)c3ccn(C)n3)ccnc21,MDR1-MDCK efflux ratio,2.48
same,"intrinsic clearance, human liver microsomes",69.5 mL/min/kg
same,"intrinsic clearance, rat liver microsomes",115 mL/min/kg
same,aqueous solubility,19.4 µg/mL
O=C(Nc1ncccc1OC(F)F)C1CCCCC1,"intrinsic clearance, human liver microsomes",61.6 mL/min/kg
same,"intrinsic clearance, rat liver microsomes",1090 mL/min/kg
CN(CCc1ccccn1)c1cnc2ccccc2n1,MDR1-MDCK efflux ratio,0.64
same,"intrinsic clearance, human liver microsomes",86.3 mL/min/kg
same,"intrinsic clearance, rat liver microsomes",862 mL/min/kg
same,aqueous solubility,44.5 µg/mL
